The results in this text go back to ChEMBL document CHEMBL1130700, “Antiinflammatory 4,5-diarylimidazoles as selective cyclooxygenase inhibitors” (1998).

Molecules are shown by their SMILES.

The species entered for one assay is Mus musculus. Description: Effective dose was evaluated by mouse air-pouch assay. The assay is classed as functional.
As to `CS(=O)(=O)c1ccc(-c2[nH]c(C(F)(F)F)nc2-c2ccccc2)cc1`, the 50% effect level (ED50) was put at a dose of 0.38 mg/kg.

Another assay concerns Mus musculus. Description: In vivo inhibitory activity by mouse air-pouch assay at dose 2 MPK was determined. The format is functional.
On to `CS(=O)(=O)c1ccc(-c2[nH]c(C(F)(F)F)nc2NS(=O)(=O)c2ccc(F)cc2)cc1`, for which at 2 mg/kg the inhibition in vivo was 33%.
In the case of `CS(=O)(=O)c1ccc(-c2[nH]c(C(F)(F)F)nc2-c2cccs2)cc1`, the inhibition in vivo at 2 mg/kg was determined as 79%.
In the case of `CS(=O)(=O)c1ccc(-c2[nH]c(C(F)(F)F)nc2-c2ccc(F)c(F)c2)cc1`, 2 mg/kg produced 68% inhibition in vivo.
With `CS(=O)(=O)c1ccc(-c2[nH]c(C(F)(F)F)nc2-c2cccc(Cl)c2)cc1`, at 2 mg/kg the inhibition in vivo was 98%.
`CS(=O)(=O)c1ccc(-c2[nH]c(C(F)(F)F)nc2-c2ccc(F)cc2F)cc1` returned an inhibition in vivo at 2 mg/kg of 100%.
`CS(=O)(=O)c1ccc(-c2[nH]c(C(F)(F)F)nc2-c2ccccc2Cl)cc1` returned an inhibition in vivo at 2 mg/kg of 86%.
In turn, `Cc1c(F)cccc1-c1[nH]c(C(F)(F)F)nc1-c1ccc(S(C)(=O)=O)cc1` had an inhibition in vivo at 2 mg/kg of 94%.
With `CS(=O)(=O)c1ccc(-c2[nH]c(C(F)(F)F)nc2-c2ccsc2)cc1`, the inhibition in vivo at 2 mg/kg was determined as 0%.
`Cc1ccc(-c2[nH]c(C(F)(F)F)nc2-c2ccc(S(C)(=O)=O)cc2)cc1Cl` gave an inhibition in vivo at 2 mg/kg of 0%.
Same read-out and setting: the same measure for `CS(=O)(=O)c1ccc(-c2[nH]c(C(F)(F)F)nc2-c2cccc(F)c2)cc1`: 92%; for `CS(=O)(=O)c1ccc(-c2[nH]c(C(F)(F)F)nc2-c2cccnc2)cc1`: 29%.
`CS(=O)(=O)c1ccc(-c2[nH]c(C(F)(F)F)nc2-c2ccc(Cl)cc2)cc1` had an inhibition in vivo at 2 mg/kg of 86%.
In the case of `CS(=O)(=O)c1ccc(-c2[nH]c(C(F)(F)F)nc2-c2ccc(F)cc2)cc1`, the inhibition in vivo at 2 mg/kg came out at 99%.
Turning to `Cc1ccc(-c2cc(C(F)(F)F)nn2-c2ccc(S(N)(=O)=O)cc2)cc1` [CELECOXIB], the ED50 stood at 0.33 mg/kg.
Molecule `Cc1cccc(-c2[nH]c(C(F)(F)F)nc2-c2ccc(S(C)(=O)=O)cc2)c1` yielded an inhibition in vivo at 2 mg/kg of 29%.
`CS(=O)(=O)c1ccc(-c2[nH]c(C(F)(F)F)nc2-c2ccc(Cl)c(Cl)c2)cc1` came in with an inhibition in vivo at 2 mg/kg of 84%.

The subject of another assay is Mus musculus. Description: In vivo inhibitory activity by mouse air-pouch assay at dose 2 mg/Kg was determined. The format is functional.
Molecule `CS(=O)(=O)c1ccc(-c2[nH]c(C(F)(F)F)nc2-c2ccccc2)cc1` registered an inhibition in vivo at 2 mg/kg of 95%.

The species entered for a further assay is Rattus norvegicus. Description: Effective dose was evaluated by rat adjuvant arthritis model. The assay is classed as functional.
Take `CS(=O)(=O)c1ccc(-c2[nH]c(C(F)(F)F)nc2-c2ccccc2)cc1`: the ED50 was found to be 0.16 mg/kg.
On to `Cc1ccc(-c2cc(C(F)(F)F)nn2-c2ccc(S(N)(=O)=O)cc2)cc1` [CELECOXIB], for which the ED50 stood at 0.37 mg/kg.
